Measured values published in patent publication US11390613B2, “Azole analogues and methods of use thereof” (UNIVERSITY OF CONNECTICUT, priority 2017, dated 2022).

Test system: Gli1 mRNA levels in the murine BCC cell line ASZ-001 (Hh pathway)
Experiment: Hh pathway inhibition: endogenous Gli1 mRNA (qRT-PCR) in ASZ-001 cells
Assay type: cell-based
Conditions: Mus musculus, ASZ001, 48 h
Protocol: Initial Hh inhibition studies.
General Information for Cell Culture Studies Protocols for general cell culture, qPCR, and Hh inhibition ASZ cells are as previously described.
General Information for Cell Culture Studies. Protocols for general cell culture, qPCR, and Hh inhibition ASZ cells are as previously described.
Gene Expression Assay Protocol (ASZ-001): Cells are seeded (10,000 cells per well; 100 μL total volume per well) in a 96-well tissue culture plate. After 24 h of incubation (37° C., 5% CO2), growth media was removed and replaced with low FBS media. Cells were incubated for an additional 24 h. After this time, DMSO (vehicle control) and liposomes (Aqueous Solution) were added to the wells. […]
Rt-PCR Protocol: Following treatment and incubation periods, both RNA extraction and cDNA synthesis were performed using a TaqMan Cells-to-CT (fast) kit. cDNA synthesis utilized a BioRad MyCycler and was programmed according to the manufacturer's instructions. Quantitative RT-PCR was performed on an ABI 7500 system and made use of the following TaqMan Gene Expression Probes: mouse ActB (Mm00607939_s1) and mouse Gli1 (Mm00494654_m1). Relative gene expression levels were computed via ΔΔCT method using GraphPad Prism. Corresponding IC50 values were calculated as mean±SEM for at least three separate experiments performed in triplicate.

IC50 | SMILES
310 ± 40 nM | C[C@@]1(c2ccc(Cl)cc2Cl)OC[C@@H](COc2ccc(N3CCN(c4ccc([N+](=O)[O-])cc4)CC3)cc2)O1 [Compound 6, 1-(4-(((2R,4R)-2-(2,4-dichlorophenyl)-2-methyl-1,3-dioxolan-4-yl)methoxy)phenyl)-4-(4-nitrophenyl)piperazine]
260 ± 40 nM | C[C@]1(c2ccc(Cl)cc2Cl)OC[C@@H](COc2ccc(N3CCN(c4ccc([N+](=O)[O-])cc4)CC3)cc2)O1 [Compound 7, 1-(4-(((2S,4R)-2-(2,4-dichlorophenyl)-2-methyl-1,3-dioxolan-4-yl)methoxy)phenyl)-4-(4-nitrophenyl)piperazine]
390 ± 90 nM | C[C@]1(c2ccc(Cl)cc2Cl)OC[C@@H](COc2ccc(N3CCN(c4ccc(N)cc4)CC3)cc2)O1 [Compound 9, 4-(4-(4-(((2S,4R)-2-(2,4-dichlorophenyl)-2-methyl-1,3-dioxolan-4-yl)methoxy)phenyl)piperazin-1-yl)aniline]
3900 ± 300 nM | C[C@]1(c2ccc(Cl)cc2Cl)OC[C@@H](COc2ccc(N3CCN(c4ccc(NC(=O)c5ccccn5)cc4)CC3)cc2)O1 [Compound 17, N-(4-(4-(4-(((2S,4R)-2-(2,4-dichlorophenyl)-2-methyl-1,3-dioxolan-4-yl)methoxy)phenyl)piperazin-1-yl)phenyl)picolinamide]
2200 ± 300 nM | C[C@]1(c2ccc(Cl)cc2Cl)OC[C@@H](COc2ccc(N3CCN(c4ccc(NC(=O)c5ccccc5O)cc4)CC3)cc2)O1 [Compound 29, N-(4-(4-(4-(((2S,4R)-2-(2,4-dichlorophenyl)-2-methyl-1,3-dioxolan-4-yl)methoxy)phenyl)piperazin-1-yl)phenyl)-2-hydroxybenzamide]
5700 nM | COc1cccc(C(=O)Nc2ccc(N3CCN(c4ccc(OC[C@@H]5CO[C@](C)(c6ccc(Cl)cc6Cl)O5)cc4)CC3)cc2)c1 [Compound 33, N-(4-(4-(4-(((2S,4R)-2-(2,4-dichlorophenyl)-2-methyl-1,3-dioxolan-4-yl)methoxy)phenyl)piperazin-1-yl)phenyl)-3-methoxybenzamide]
210 nM | C[C@]1(c2ccc(Cl)cc2Cl)OC[C@@H](COc2ccc(N3CCN(c4ccc(-n5cn[nH]c5=O)cc4)CC3)cc2)O1 [Compound 42, 4-(4-(4-(4-(((2S,4R)-2-(2,4-dichlorophenyl)-2-methyl-1,3-dioxolan-4-yl)methoxy)phenyl)piperazin-1-yl)phenyl)-1H-1,2,4-triazol-5(4H)-one]

Same assay, conditions: Mus musculus, ASZ001; Table P2; ASZ cells, Gli1 mRNA, 48 h incubation; read-out: IC50

IC50 | SMILES
12 ± 5 nM | CC1(c2ccc(Cl)cc2Cl)OCC(COc2ccc(N3CCN(c4ccc(-n5cnn(CCC(=O)O)c5=O)cc4)CC3)cc2)O1 (stereo not drawn) [Compound I17, 3-(4-(4-(4-(4-((2-(2,4-dichlorophenyl)-2-methyl-1,3-dioxolan-4-yl)methoxy)phenyl)piperazin-1-yl)phenyl)-5-oxo-4,5-dihydro-1H-1,2,4-triazol-1-yl)propanoic acid]
32 ± 10 nM | C[C@]1(c2ccc(F)cc2F)C[C@H](COc2ccc(N3CCN(c4ccc(-n5cnn(CCC(=O)O)c5=O)cc4)CC3)cc2)CO1 [Compound P13, 3-(4-(4-(4-(4-(((3R,5R)-5-(2,4-difluorophenyl)-5-methyltetrahydrofuran-3-yl)methoxy)phenyl)piperazin-1-yl)phenyl)-5-oxo-4,5-dihydro-1H-1,2,4-triazol-1-yl)propanoic acid]
150 ± 20 nM | C[C@]1(c2ccc(F)cc2F)C[C@H](COc2ccc(N3CCN(c4ccc(-n5cnn(CC(=O)O)c5=O)cc4)CC3)cc2)CO1 [Compound P14, 2-(4-(4-(4-(4-(((3R,5R)-5-(2,4-difluorophenyl)-5-methyltetrahydrofuran-3-yl)methoxy)phenyl)piperazin-1-yl)phenyl)-5-oxo-4,5-dihydro-1H-1,2,4-triazol-1-yl)acetic acid]
20 ± 10 nM | C[C@]1(c2ccc(F)cc2F)C[C@H](COc2ccc(N3CCN(c4ccc(-n5cnn(CCCO)c5=O)cc4)CC3)cc2)CO1 [Compound P15, 4-(4-(4-(4-(((3R,5R)-5-(2,4-difluorophenyl)-5-methyltetrahydrofuran-3-yl)methoxy)phenyl)piperazin-1-yl)phenyl)-2-(3-hydroxypropyl)-2,4-dihydro-3H-1,2,4-triazol-3-one]

Same assay, conditions: Table 6; ASZ cells, Gli1 mRNA, 48 h incubation; read-out: IC50

IC50 | SMILES
> 10000 nM | C[C@@]1(c2ccc(Cl)cc2Cl)OC[C@@H](COc2ccc(N3CCN(c4ccc(NC(=O)c5ccccc5)cc4)CC3)cc2)O1 [Compound 10, N-(4-(4-(4-(((2R,4R)-2-(2,4-dichlorophenyl)-2-methyl-1,3-dioxolan-4-yl)methoxy)phenyl)piperazin-1-yl)phenyl)benzamide]
> 10000 nM | C[C@@]1(c2ccc(Cl)cc2Cl)OC[C@@H](COc2ccc(N3CCN(c4ccc(NC(=O)c5ccc6ccccc6c5)cc4)CC3)cc2)O1 [Compound 11, N-(4-(4-(4-(((2R,4R)-2-(2,4-dichlorophenyl)-2-methyl-1,3-dioxolan-4-yl)methoxy)phenyl)piperazin-1-yl)phenyl)-2-naphthamide]
> 10000 nM | C[C@@]1(c2ccc(Cl)cc2Cl)OC[C@@H](COc2ccc(N3CCN(c4ccc(NC(=O)c5ccccn5)cc4)CC3)cc2)O1 [Compound 12, N-(4-(4-(4-(((2R,4R)-2-(2,4-dichlorophenyl)-2-methyl-1,3-dioxolan-4-yl)methoxy)phenyl)piperazin-1-yl)phenyl)picolinamide]
> 10000 nM | C[C@@]1(c2ccc(Cl)cc2Cl)OC[C@@H](COc2ccc(N3CCN(c4ccc(NC(=O)c5ccncc5)cc4)CC3)cc2)O1 [Compound 14, N-(4-(4-(4-(((2R,4R)-2-(2,4-dichlorophenyl)-2-methyl-1,3-dioxolan-4-yl)methoxy)phenyl)piperazin-1-yl)phenyl)isonicotinamide]
> 10000 nM | C[C@]1(c2ccc(Cl)cc2Cl)OC[C@@H](COc2ccc(N3CCN(c4ccc(NC(=O)c5ccccc5)cc4)CC3)cc2)O1 [Compound 15, N-(4-(4-(4-(((2S,4R)-2-(2,4-dichlorophenyl)-2-methyl-1,3-dioxolan-4-yl)methoxy)phenyl)piperazin-1-yl)phenyl)benzamide]
> 10000 nM | C[C@]1(c2ccc(Cl)cc2Cl)OC[C@@H](COc2ccc(N3CCN(c4ccc(NC(=O)c5ccc6ccccc6c5)cc4)CC3)cc2)O1 [Compound 16, N-(4-(4-(4-(((2S,4R)-2-(2,4-dichlorophenyl)-2-methyl-1,3-dioxolan-4-yl)methoxy)phenyl)piperazin-1-yl)phenyl)-2-naphthamide]
> 10000 nM | C[C@]1(c2ccc(Cl)cc2Cl)OC[C@@H](COc2ccc(N3CCN(c4ccc(NC(=O)c5ccncc5)cc4)CC3)cc2)O1 [Compound 19, N-(4-(4-(4-(((2S,4R)-2-(2,4-dichlorophenyl)-2-methyl-1,3-dioxolan-4-yl)methoxy)phenyl)piperazin-1-yl)phenyl)isonicotinamide]
> 10000 nM | C[C@@]1(c2ccc(Cl)cc2Cl)OC[C@@H](COc2ccc(N3CCN(c4ccc(NC(=O)c5ccccc5O)cc4)CC3)cc2)O1 [Compound 26, N-(4-(4-(4-(((2R,4R)-2-(2,4-dichlorophenyl)-2-methyl-1,3-dioxolan-4-yl)methoxy)phenyl)piperazin-1-yl)phenyl)-2-hydroxybenzamide]
> 10000 nM | C[C@@]1(c2ccc(Cl)cc2Cl)OC[C@@H](COc2ccc(N3CCN(c4ccc(NC(=O)c5ccc(O)cc5)cc4)CC3)cc2)O1 [Compound 28, N-(4-(4-(4-(((2R,4R)-2-(2,4-dichlorophenyl)-2-methyl-1,3-dioxolan-4-yl)methoxy)phenyl)piperazin-1-yl)phenyl)-4-hydroxybenzamide]
3000 ± 100 nM | C[C@]1(c2ccc(Cl)cc2Cl)OC[C@@H](COc2ccc(N3CCN(c4ccc(NC(=O)c5ccc(O)cc5)cc4)CC3)cc2)O1 [Compound 31, N-(4-(4-(4-(((2S,4R)-2-(2,4-dichlorophenyl)-2-methyl-1,3-dioxolan-4-yl)methoxy)phenyl)piperazin-1-yl)phenyl)-4-hydroxybenzamide]

Same assay, conditions: Table 7; ASZ cells, Gli1 mRNA, 48 h incubation

IC50 (μM) | SMILES
inactive | C[C@]1(c2ccc(Cl)cc2Cl)OC[C@@H](COc2ccc(N3CCN(c4ccc(NC(=O)c5ccoc5)cc4)CC3)cc2)O1 [Compound 35, N-(4-(4-(4-(((2S,4R)-2-(2,4-dichlorophenyl)-2-methyl-1,3-dioxolan-4-yl)methoxy)phenyl)piperazin-1-yl)phenyl)furan-3-carboxamide]
inactive | C[C@]1(c2ccc(Cl)cc2Cl)OC[C@@H](COc2ccc(N3CCN(c4ccc(NC(=O)c5ccsc5)cc4)CC3)cc2)O1 [Compound 36, N-(4-(4-(4-(((2S,4R)-2-(2,4-dichlorophenyl)-2-methyl-1,3-dioxolan-4-yl)methoxy)phenyl)piperazin-1-yl)phenyl)thiophene-3-carboxamide]

Same assay, conditions: Table 7; ASZ cells, Gli1 mRNA, 48 h incubation; read-out: IC50

IC50 | SMILES
> 10000 nM | C[C@]1(c2ccc(Cl)cc2Cl)OC[C@@H](COc2ccc(N3CCN(c4ccc(NC(=O)c5cccc(Cl)c5)cc4)CC3)cc2)O1 [Compound 32, 3-chloro-N-(4-(4-(4-(((2S,4R)-2-(2,4-dichlorophenyl)-2-methyl-1,3-dioxolan-4-yl)methoxy)phenyl)piperazin-1-yl)phenyl)benzamide]
> 10000 nM | C[C@]1(c2ccc(Cl)cc2Cl)OC[C@@H](COc2ccc(N3CCN(c4ccc(NC(=O)c5ccoc5)cc4)CC3)cc2)O1 [Compound 35, N-(4-(4-(4-(((2S,4R)-2-(2,4-dichlorophenyl)-2-methyl-1,3-dioxolan-4-yl)methoxy)phenyl)piperazin-1-yl)phenyl)furan-3-carboxamide]
> 10000 nM | C[C@]1(c2ccc(Cl)cc2Cl)OC[C@@H](COc2ccc(N3CCN(c4ccc(NC(=O)c5ccsc5)cc4)CC3)cc2)O1 [Compound 36, N-(4-(4-(4-(((2S,4R)-2-(2,4-dichlorophenyl)-2-methyl-1,3-dioxolan-4-yl)methoxy)phenyl)piperazin-1-yl)phenyl)thiophene-3-carboxamide]

Same assay, conditions: Table 8; ASZ cells, Gli1 mRNA, 48 h incubation; read-out: IC50

IC50 | SMILES
140 nM | C[C@@]1(c2ccc(Cl)cc2Cl)OC[C@@H](COc2ccc(N3CCN(c4ccc(-n5cn[nH]c5=O)cc4)CC3)cc2)O1 [Compound 41]
